Assay results from ChEMBL document CHEMBL3352377, “Discovery of selective and orally bioavailable protein kinase Cθ (PKCθ) inhibitors from a fragment hit” (J Med Chem, 2015).

What was measured:
[1] = Oral bioavailability in rat at 3 mg/kg; assay type: ADME, organism-based; conditions: in vivo
[2] = Half life in rat at 1 mg/kg, iv or 3 mg/kg, po; assay type: ADME, organism-based; conditions: in vivo
cells = conditions: Homo sapiens, T-Blast, 24 h
Description: Inhibition of anti-CD3/anti-CD28 antibody-induced IL2 production in human T-Blast cells after 24 hrs

[3] = Unbound intrinsic clearance in human microsomes; assay type: ADME, Microsome
[4] = AUC in rat at 1 mg/kg, iv or 3 mg/kg, po; assay type: ADME, organism-based; conditions: plasma
[5] = target: Protein kinase C gamma type (Homo sapiens, UniProt P05129); assay: Inhibition of human recombinant PKCgamma expressed in Sf21 cells using Bio-cdc peptide substrate and ATP after 60 mins by time-resolved fluorescence in-vitro kinase assay
[6] = target: Protein kinase C beta type (Homo sapiens, UniProt P05771); assay: Inhibition of human recombinant PKCbeta expressed in Sf21 cells using Bio-cdc peptide substrate and ATP after 60 mins by time-resolved fluorescence in-vitro kinase assay
Sequence of Protein kinase C beta type (P05771 whole entry): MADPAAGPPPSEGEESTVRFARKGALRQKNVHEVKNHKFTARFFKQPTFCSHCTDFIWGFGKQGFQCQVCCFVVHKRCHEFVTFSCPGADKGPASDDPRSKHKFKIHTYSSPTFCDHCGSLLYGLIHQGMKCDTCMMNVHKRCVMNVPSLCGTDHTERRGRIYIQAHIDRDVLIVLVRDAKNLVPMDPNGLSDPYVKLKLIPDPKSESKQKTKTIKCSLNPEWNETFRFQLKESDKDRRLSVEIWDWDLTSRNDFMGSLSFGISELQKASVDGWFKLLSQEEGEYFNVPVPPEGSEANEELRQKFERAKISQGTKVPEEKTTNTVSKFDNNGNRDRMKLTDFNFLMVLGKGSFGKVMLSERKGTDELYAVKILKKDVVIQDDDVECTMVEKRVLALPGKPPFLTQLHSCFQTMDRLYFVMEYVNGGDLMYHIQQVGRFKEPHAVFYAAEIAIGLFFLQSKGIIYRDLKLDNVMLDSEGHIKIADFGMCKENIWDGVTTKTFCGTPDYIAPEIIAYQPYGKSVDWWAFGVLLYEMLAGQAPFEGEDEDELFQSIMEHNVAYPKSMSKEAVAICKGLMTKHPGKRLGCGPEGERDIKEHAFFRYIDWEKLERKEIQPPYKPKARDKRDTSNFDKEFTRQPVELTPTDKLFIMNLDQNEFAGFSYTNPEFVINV

[7] = target: Protein kinase C alpha type (Homo sapiens, UniProt P17252)
[8] = Cmax in rat at 1 mg/kg, iv or 3 mg/kg, po; assay type: ADME, organism-based; conditions: in vivo
[9] = Plasma clearance in rat at 1 mg/kg, iv or 3 mg/kg, po; assay type: ADME, organism-based
[10] = target: Protein kinase C theta type (Homo sapiens, UniProt Q04759)
Sequence of Protein kinase C theta type (Q04759 whole entry): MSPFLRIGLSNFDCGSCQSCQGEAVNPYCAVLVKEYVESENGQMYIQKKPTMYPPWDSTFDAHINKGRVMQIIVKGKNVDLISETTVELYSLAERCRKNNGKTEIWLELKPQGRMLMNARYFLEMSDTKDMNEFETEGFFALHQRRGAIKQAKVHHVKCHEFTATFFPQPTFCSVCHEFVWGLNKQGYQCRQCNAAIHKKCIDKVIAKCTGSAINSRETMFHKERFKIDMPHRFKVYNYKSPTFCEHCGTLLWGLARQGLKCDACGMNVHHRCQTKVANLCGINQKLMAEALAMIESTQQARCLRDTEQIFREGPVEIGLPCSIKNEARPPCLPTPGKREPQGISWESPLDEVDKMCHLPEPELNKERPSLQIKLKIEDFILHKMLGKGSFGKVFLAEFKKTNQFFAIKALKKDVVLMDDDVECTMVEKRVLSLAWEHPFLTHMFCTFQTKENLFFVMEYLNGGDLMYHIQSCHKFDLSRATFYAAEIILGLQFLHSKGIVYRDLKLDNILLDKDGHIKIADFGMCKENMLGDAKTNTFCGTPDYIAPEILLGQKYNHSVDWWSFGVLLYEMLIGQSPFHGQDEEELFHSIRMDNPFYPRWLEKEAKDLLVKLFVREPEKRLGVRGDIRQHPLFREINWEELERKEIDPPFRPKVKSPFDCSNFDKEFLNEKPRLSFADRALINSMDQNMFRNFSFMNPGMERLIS
Description: Inhibition of human recombinant PKCtheta expressed in Sf21 cells using Bio-cdc peptide substrate and ATP after 60 mins by time-resolved fluorescence in-vitro kinase assay

[11] = target: Protein kinase C delta type (Homo sapiens, UniProt Q05655); assay: Inhibition of human recombinant PKCdelta expressed in Sf21 cells using Bio-cdc peptide substrate and ATP after 60 mins by time-resolved fluorescence in-vitro kinase assay
Sequence of Protein kinase C delta type (Q05655 whole entry): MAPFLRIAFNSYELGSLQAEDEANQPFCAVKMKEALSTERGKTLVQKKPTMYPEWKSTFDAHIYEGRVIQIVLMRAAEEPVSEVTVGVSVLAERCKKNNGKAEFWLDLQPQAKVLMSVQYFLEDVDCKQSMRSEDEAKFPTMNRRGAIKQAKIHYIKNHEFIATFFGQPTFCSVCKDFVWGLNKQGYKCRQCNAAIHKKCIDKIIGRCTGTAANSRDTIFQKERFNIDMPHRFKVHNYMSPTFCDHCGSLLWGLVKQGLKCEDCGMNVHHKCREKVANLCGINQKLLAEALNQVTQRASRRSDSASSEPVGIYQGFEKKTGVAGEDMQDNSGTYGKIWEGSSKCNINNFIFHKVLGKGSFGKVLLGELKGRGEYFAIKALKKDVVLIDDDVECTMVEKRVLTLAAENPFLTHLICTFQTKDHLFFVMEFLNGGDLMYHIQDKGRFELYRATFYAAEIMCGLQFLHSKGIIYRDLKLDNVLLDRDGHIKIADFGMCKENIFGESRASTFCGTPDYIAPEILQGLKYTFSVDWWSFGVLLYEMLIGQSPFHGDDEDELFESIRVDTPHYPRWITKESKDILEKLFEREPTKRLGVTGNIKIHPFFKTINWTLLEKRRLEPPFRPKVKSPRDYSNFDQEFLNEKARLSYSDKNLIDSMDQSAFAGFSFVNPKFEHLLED

[12] = Permeability from apical to basolateral side in MDCK2-MDR1 cells at pH 7.4; assay type: ADME, cell-based, Canis lupus familiaris, MDCK-II; conditions: dog, MDCK-MDR1, pH 7.4; read-out: permeability
Canis familiaris [13] = assay: Reduction in mean arterial pressure in anesthetized dog cardiovascular model at plasma concentration of 7.7 uM in presence of hexamethonium; assay type: ADME, organism-based, Canis lupus familiaris; conditions: in vivo
[14] = Unbound intrinsic clearance in mouse microsomes; assay type: ADME, Microsome
[15] = Inhibition of human recombinant […] expressed in Sf21 cells using Bio-cdc peptide substrate and ATP after 60 mins by time-resolved fluorescence in-vitro kinase assay
[16] = Plasma clearance in mouse at 3 mg/kg, iv or 10 mg/kg, po; assay type: ADME, organism-based
Canis familiaris [17] = assay: Increase in dP/dtma in anesthetized dog cardiovascular model at plasma concentration of 7.7 uM; conditions: in vivo
[18] = target: T1, Protein kinase C epsilon type (Homo sapiens, UniProt Q02156); assay: Inhibition of human recombinant PKCepsilon expressed in Sf21 cells using Bio-cdc peptide substrate and ATP after 60 mins by time-resolved fluorescence in-vitro kinase assay
T1 sequence (Q02156 whole entry): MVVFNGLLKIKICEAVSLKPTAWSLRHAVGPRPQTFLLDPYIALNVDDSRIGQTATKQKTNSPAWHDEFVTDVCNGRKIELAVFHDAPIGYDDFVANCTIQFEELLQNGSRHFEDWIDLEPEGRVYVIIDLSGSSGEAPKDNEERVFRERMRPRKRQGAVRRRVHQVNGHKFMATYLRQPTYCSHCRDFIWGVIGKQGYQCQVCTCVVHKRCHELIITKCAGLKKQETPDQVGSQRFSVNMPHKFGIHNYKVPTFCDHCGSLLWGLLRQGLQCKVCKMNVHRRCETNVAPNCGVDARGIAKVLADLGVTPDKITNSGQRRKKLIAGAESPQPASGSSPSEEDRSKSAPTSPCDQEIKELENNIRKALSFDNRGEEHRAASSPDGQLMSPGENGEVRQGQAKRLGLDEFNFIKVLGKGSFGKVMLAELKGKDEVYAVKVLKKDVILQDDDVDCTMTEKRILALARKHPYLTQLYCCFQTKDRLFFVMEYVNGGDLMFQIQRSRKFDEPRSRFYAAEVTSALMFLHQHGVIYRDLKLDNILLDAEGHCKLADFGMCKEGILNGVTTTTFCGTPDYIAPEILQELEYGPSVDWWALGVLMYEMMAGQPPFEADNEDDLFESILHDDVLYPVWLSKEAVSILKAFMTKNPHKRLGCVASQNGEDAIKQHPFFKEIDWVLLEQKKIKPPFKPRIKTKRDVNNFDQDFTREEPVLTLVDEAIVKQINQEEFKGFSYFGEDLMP

Rattus norvegicus [19] = assay: Reduction in heart rate in rat cardiovascular model at 3 to 30 mg/kg dosed over 30 mins infusions; conditions: in vivo, iv, 0.5 h
[20] = Half life in mouse at 3 mg/kg, iv or 10 mg/kg, po; assay type: ADME, organism-based; conditions: in vivo
[21] = AUC in mouse at 3 mg/kg, iv or 10 mg/kg, po; assay type: ADME, organism-based; conditions: plasma
Rattus norvegicus [22] = assay: Reduction in mean arterial pressure in rat cardiovascular model at 3 to 30 mg/kg dosed over 30 mins infusions; conditions: in vivo, iv, 0.5 h
Rattus norvegicus [23] = assay: Effect on left ventricular dP/dt50 in rat cardiovascular model at 3 to 30 mg/kg dosed over 30 mins infusions; conditions: in vivo, iv, 0.5 h
[24] = Unbound intrinsic clearance in rat microsomes; assay type: ADME, Microsome
[25] = target: T2, Protein kinase C zeta type (Homo sapiens, UniProt Q05513); assay: Inhibition of human recombinant PKCzeta expressed in Sf21 cells using Bio-cdc peptide substrate and ATP after 60 mins by time-resolved fluorescence in-vitro kinase assay
T2 sequence (Q05513 whole entry): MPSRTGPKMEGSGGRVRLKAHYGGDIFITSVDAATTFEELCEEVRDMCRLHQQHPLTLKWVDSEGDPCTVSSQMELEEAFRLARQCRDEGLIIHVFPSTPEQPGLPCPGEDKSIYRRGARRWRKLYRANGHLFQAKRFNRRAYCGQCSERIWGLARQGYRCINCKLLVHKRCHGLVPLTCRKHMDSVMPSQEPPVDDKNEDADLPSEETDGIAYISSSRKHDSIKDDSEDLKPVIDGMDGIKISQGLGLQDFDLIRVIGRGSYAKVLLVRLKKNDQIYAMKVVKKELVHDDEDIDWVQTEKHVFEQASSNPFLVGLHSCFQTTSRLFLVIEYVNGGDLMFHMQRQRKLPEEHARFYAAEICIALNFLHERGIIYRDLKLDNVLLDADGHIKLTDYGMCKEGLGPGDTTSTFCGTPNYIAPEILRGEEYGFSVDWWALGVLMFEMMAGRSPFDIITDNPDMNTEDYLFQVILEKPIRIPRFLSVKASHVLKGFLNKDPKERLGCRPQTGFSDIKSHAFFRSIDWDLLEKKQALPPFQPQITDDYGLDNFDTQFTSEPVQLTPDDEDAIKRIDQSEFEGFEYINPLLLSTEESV

Canis familiaris [26] = assay: Reduction in dP/dtma in anesthetized dog cardiovascular model at plasma concentration of 1.7 uM; assay type: ADME, organism-based, Canis lupus familiaris; parameters: scale not given: the % may be the effect or the level left; conditions: in vivo
Canis familiaris [27] = assay: Reduction in mean arterial pressure in anesthetized dog cardiovascular model in presence of hexamethonium; conditions: in vivo
[28] = Cmax in mouse at 3 mg/kg, iv or 10 mg/kg, po; assay type: ADME, organism-based; conditions: in vivo
Canis familiaris [29] = assay: Reduction in dP/dtmax in anesthetized dog cardiovascular model at plasma concentration of 7.7 uM in presence of hexamethonium; assay type: ADME, organism-based, Canis lupus familiaris; parameters: scale not given: the % may be the effect or the level left; conditions: in vivo
Canis familiaris [30] = assay: Reduction in mean arterial pressure in anesthetized dog cardiovascular model at plasma concentration of 1.7 uM; assay type: ADME, organism-based, Canis lupus familiaris; conditions: in vivo
[31] = target: Voltage-gated inwardly rectifying potassium channel KCNH2 (Homo sapiens, UniProt Q12809); assay: Inhibition of human ERG
Sequence of Voltage-gated inwardly rectifying potassium channel KCNH2 (Q12809 whole entry): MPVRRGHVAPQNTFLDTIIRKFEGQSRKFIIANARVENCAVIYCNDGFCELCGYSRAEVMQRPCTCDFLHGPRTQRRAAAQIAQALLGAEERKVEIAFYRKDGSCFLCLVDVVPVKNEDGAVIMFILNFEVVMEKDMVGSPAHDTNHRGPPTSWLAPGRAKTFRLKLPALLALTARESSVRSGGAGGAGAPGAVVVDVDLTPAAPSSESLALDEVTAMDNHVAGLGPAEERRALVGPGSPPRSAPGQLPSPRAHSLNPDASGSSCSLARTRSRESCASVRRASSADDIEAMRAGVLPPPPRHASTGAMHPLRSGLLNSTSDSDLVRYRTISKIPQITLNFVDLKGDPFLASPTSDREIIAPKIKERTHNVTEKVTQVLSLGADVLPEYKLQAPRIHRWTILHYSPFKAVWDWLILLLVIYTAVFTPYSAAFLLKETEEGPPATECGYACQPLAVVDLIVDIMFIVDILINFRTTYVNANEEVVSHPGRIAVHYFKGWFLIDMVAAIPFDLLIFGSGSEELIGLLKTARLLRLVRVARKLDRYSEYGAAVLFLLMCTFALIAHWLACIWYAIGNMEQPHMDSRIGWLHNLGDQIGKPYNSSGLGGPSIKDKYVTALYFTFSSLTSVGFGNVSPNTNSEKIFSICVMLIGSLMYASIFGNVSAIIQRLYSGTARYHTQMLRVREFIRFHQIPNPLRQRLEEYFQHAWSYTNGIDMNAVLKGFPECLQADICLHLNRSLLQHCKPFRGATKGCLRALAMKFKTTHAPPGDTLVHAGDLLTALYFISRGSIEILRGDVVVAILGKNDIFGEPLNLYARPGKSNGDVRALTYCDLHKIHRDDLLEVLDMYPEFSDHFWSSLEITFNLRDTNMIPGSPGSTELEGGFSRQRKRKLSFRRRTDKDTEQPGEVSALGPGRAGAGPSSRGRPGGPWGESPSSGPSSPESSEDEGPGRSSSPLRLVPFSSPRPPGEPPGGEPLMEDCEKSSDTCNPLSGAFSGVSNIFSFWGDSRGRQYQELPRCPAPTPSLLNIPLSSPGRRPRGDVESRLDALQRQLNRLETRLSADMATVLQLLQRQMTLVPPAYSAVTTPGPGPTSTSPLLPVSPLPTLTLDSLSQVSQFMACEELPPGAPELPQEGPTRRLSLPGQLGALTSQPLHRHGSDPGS

Canis familiaris [32] = assay: Reduction in dP/dtmax in anesthetized dog cardiovascular model at plasma concentration of 2.2 uM in presence of hexamethonium; assay type: ADME, organism-based, Canis lupus familiaris; parameters: scale not given: the % may be the effect or the level left; conditions: in vivo
Canis familiaris [33] = assay: Reduction in mean arterial pressure in anesthetized dog cardiovascular model at plasma concentration of 6.9 uM; assay type: ADME, organism-based, Canis lupus familiaris; conditions: in vivo
[34] = Oral bioavailability in mouse at 10 mg/kg; assay type: ADME, organism-based; conditions: in vivo

bioavailability [1] [%]	half-life [2] [h]	IC50 (cells) [nM]	CL free [3] [mL/min/kg]	AUC [4] [ng·h/mL]	IC50 [5] [nM]	IC50 [6] [nM]	IC50 [7] [nM]	Cmax [8] [ng/mL]	clearance [9] [mL/min/kg]	IC50 [10] [nM]	IC50 [11] [nM]	Papp A→B [12] [×10⁻⁶ cm/s]	CL free [14] [mL/min/kg]	IC50 [15] [nM]	IC50 [18] [nM]	CL free [24] [mL/min/kg]	IC50 [25] [nM]	Compound	further results
9.2	3	270	40	60	23000	520	5100	8.7	81.7	55	750	0.35	–	–	–	–	–	Cc1cc2c(cc1NC1CNC1)N1C(=NNC(=O)[C@H]1C)CO2	–
28	5.5	220	80	409	7800	1500	4600	80	35	–	470	0.44	< 138	3900	140	< 78.3	33000	C[C@@H]1C(=O)NN=C2COc3cc(C(F)(F)F)c(NC4CNC4)cc3N21	Activity (Canis familiaris [13]): -12 mmHg; clearance [16]: 96.7 mL/min/kg; Activity (Canis familiaris [17]): 34%; Activity (Rattus norvegicus [19]): Toxic; half-life [20]: 2.7 h; AUC [21]: 1730 ng·h/mL; Activity (Rattus norvegicus [22]): Toxic; Activity (Rattus norvegicus [23]): Non-toxic; Activity (Canis familiaris [26]): 3%; Activity (Canis familiaris [27]): -3 mmHg; Cmax [28]: 342 ng/mL; Activity (Canis familiaris [29]): -7%; Activity (Canis familiaris [30]): 1 mmHg; IC50 [31]: > 30000 nM; Activity (Canis familiaris [32]): -4%; Activity (Canis familiaris [33]): 3 mmHg; bioavailability [34]: 85%
5.4	5.9	120	90	43	13000	87	1800	5.3	81.7	49	330	0.27	467	860	460	200	8500	C[C@@H]1C(=O)NN=C2COc3cc(-c4ccccc4)c(NC4CNC4)cc3N21	–
